Results as given in patent publication US20200000751A1, “CARBOXYLIC ACIDS FOR TREATING/PREVENTING NASAL CONGESTION” (PROPONENT BIOTECH GMBH, priority 2016, published 2020).

Experiment: Stability of test item in solution
Type: physicochemical
Conditions: in Locke-Ringer Solution

For `CCC(=O)[O-].[Na+]` [Sodium propionate], the “Stability of Test Item in Solution” value was ≥6 months in Locke-Ringer Solution.
